{"source": "patent US20090042962A1", "about": "“Therapeutic Agent for Keratoconjunctival Disorder” (SANTEN PHARMACEUTICAL CO., LTD., priority 2005, published 2009)", "test_system": "corneal disorder models", "assay": "Test for therapeutic effect on corneal damage (exorbital lacrimal gland removal, fluorescein staining score)", "format": "in vivo, male SD rats", "details": "for Improvement ratio (%): instilled 6 times a day for 14 days; for Mean value of scores: instilled into both eyes 6 times a day for 14 days, fluorescein staining total score", "procedure": "Using male SD rats, corneal disorder models were produced in accordance with the method of Fujihara et al. (Invest. Opthalmol. Vis. Sci. 42 (1): 96-100 (2001)) After the production of the corneal disorder models, the corneal damage score was evaluated in accordance with the method of Murakami et al. (Journal of the eye 21 (1): 87-90 (2004)), and the improvement ratio of a corneal damage after instillation was obtained.\nMale SD rats were systemically anesthetized by an administration of Nembutal. Subsequently the exorbital lacrimal gland of each rat was removed and a corneal damage was induced over a period of 2 months.\nThen, 4′-[[4-methyl-6-(1-methylbenzimidazol-2-yl)-2-n-propylbenzimidazol-1-yl]methyl]-1,1′-biphenyl-2-carboxylic acid (hereinafter referred to as “Compound A”), 2-n-butyl-4-spirocyclopentane-1-[[2′-(1H-tetrazol-5-yl)-1,1′-biphenyl-4-yl]methyl]-2-imidazolin-5-one (hereinafter referred to as “Compound B”), 2-butyl-4-chloro-5-hydroxymethyl-1-[[2′-(1H-tetrazol-5-yl)-1,1′-biphenyl-4-yl]methyl]imidazole monopotassium salt (hereinafter referred to as “Compound C”), 2-ethoxy-1-[[2′-(1H-tetrazol-5-yl)-1,1′-biphenyl-4-yl]methyl]-1H-benzimidazol-7-carboxylic acid (hereinafter referred to as “Compound D”) […] N-[[2′-(1H-tetrazol-5-yl)-1,1′-biphenyl-4-yl]methyl]-N-valeryl-L-valine (hereinafter referred to as “Compound E”), or 4-(1-hydroxy-1-methylethyl)-2-n-propyl-1-[[2′-(1H-tetrazol-5-yl)-1,1′-biphenyl-4-yl]methyl]imidazol-5-carboxylic acid monohydrate (hereinafter referred to as “Compound F”) was administered to the rats as follows.\nA physiological saline solution containing Compound A (0.005%) was instilled into both eyes 6 times a day for 14 days (one group consisting of 4 animals, 8 eyes).\nA physiological saline solution containing Compound B (0.04%) was instilled into both eyes 6 times a day for 14 days (one group consisting of 4 animals, 8 eyes).\nA physiological saline solution containing Compound C (0.5%) was instilled into both eyes 6 times a day for 14 days (one group consisting of 3 animals, 6 eyes).\nA phosphate-buffered saline solution containing Compound D (0.004%) was instilled into both eyes 6 times a day for 14 days (one group consisting of 4 animals, 8 eyes).\nA phosphate-buffered saline solution containing Compound E (0.004%) was instilled into both eyes 6 times a day for 14 days (one group consisting of 4 animals, 8 eyes).\nA phosphate-buffered saline solution containing Compound F (0.004%) was instilled into both eyes 6 times a day for 14 days (one group consisting of 4 animals, 8 eyes).\nIn a control group, physiological saline or phosphate-buffered saline was instilled into both eyes 6 times a day for 14 days (one group consisting of 4 animals, 8 eyes).\nFourteen days after the start of instillation, the damaged parts of the cornea were stained with fluorescein. For each of the upper, middle and lower parts of the cornea, the degree of fluorescein staining was evaluated by scoring according to the criteria shown below and the improvement ratio of corneal damage was calculated from the mean value of the total scores for each of the above-mentioned parts. Also for normal eyes, the mean value of the total scores for each of the above-mentioned parts was obtained.\n0: No punctate staining 1: Scattered staining (punctate staining being separated) 2: Moderate staining (a part of punctate staining being adjacent) 3: Heavy staining (punctate staining being barely separated)\nIncidentally, the mean value of the scores is a mean of those of 8 cases or 6 cases, respectively.\nImprovement ratio (%)={(control)−(the present compound)}/damage degree×100 Damage degree=(control)−(normal eye)", "key": {"[1]": {"details": "0.004% in phosphate-buffered saline, vs phosphate-buffered saline control, Table 2"}, "[2]": {"details": "0.004% in phosphate-buffered saline, Table 2 (normal eye 2.5, control 4.6)"}}, "data": [{"smiles": "CCCc1nc(C(C)(C)O)c(C(=O)O)n1Cc1ccc(-c2ccccc2-c2nnn[nH]2)cc1.O", "note": "[Compound F, 4-(1-hydroxy-1-methylethyl)-2-n-propyl-1-[[2′-(1H-tetrazol-5-yl)-1,1′-biphenyl-4-yl]methyl]imidazol-5-carboxylic acid monohydrate]", "values": [{"measurement": "Improvement ratio (%)", "setting": "0.004% in phosphate-buffered saline, vs phosphate-buffered saline control, Table 3", "result": 65.9, "unit": "%"}, {"measurement": "Mean value of scores", "setting": "0.004% in phosphate-buffered saline, Table 3 (normal eye 2.2, control 6.3)", "result": 3.6}]}, {"smiles": "CCCCC1=NC2(CCCC2)C(=O)N1Cc1ccc(-c2ccccc2-c2nnn[nH]2)cc1", "note": "[Compound B, 2-n-butyl-4-spirocyclopentane-1-[[2′-(1H-tetrazol-5-yl)-1,1′-biphenyl-4-yl]methyl]-2-imidazolin-5-one]", "values": [{"measurement": "Improvement ratio (%)", "setting": "0.04% in physiological saline, vs physiological saline control, Table 1", "result": 62.5, "unit": "%"}, {"measurement": "Mean value of scores", "setting": "0.04% in physiological saline, Table 1 (normal eye 3.3, control 4.9)", "result": 3.9}]}, {"smiles": "CCOc1nc2cccc(C(=O)O)c2n1Cc1ccc(-c2ccccc2-c2nnn[nH]2)cc1", "note": "[Compound D, 2-ethoxy-1-[[2′-(1H-tetrazol-5-yl)-1,1′-biphenyl-4-yl]methyl]-1H-benzimidazol-7-carboxylic acid]", "values": [{"measurement": "Improvement ratio (%)", "setting": "[1]", "result": 47.6, "unit": "%"}, {"measurement": "Mean value of scores", "setting": "[2]", "result": 3.6}]}, {"smiles": "CCCCc1nc(Cl)c(CO)n1Cc1ccc(-c2ccccc2-c2nnn[nH]2)cc1.[K]", "note": "[Compound C, 2-butyl-4-chloro-5-hydroxymethyl-1-[[2′-(1H-tetrazol-5-yl)-1,1′-biphenyl-4-yl]methyl]imidazole monopotassium salt]", "values": [{"measurement": "Improvement ratio (%)", "setting": "0.5% in physiological saline, vs physiological saline control, Table 1", "result": 87.5, "unit": "%"}, {"measurement": "Mean value of scores", "setting": "0.5% in physiological saline, Table 1 (normal eye 3.3, control 4.9)", "result": 3.5}]}, {"smiles": "CCCCC(=O)N(Cc1ccc(-c2ccccc2-c2nnn[nH]2)cc1)[C@H](C(=O)O)C(C)C", "note": "[Compound E, N-[[2′-(1H-tetrazol-5-yl)-1,1′-biphenyl-4-yl]methyl]-N-valeryl-L-valine]", "values": [{"measurement": "Improvement ratio (%)", "setting": "[1]", "result": 33.3, "unit": "%"}, {"measurement": "Mean value of scores", "setting": "[2]", "result": 3.9}]}, {"smiles": "CCCc1nc2c(C)cc(-c3nc4ccccc4n3C)cc2n1Cc1ccc(-c2ccccc2C(=O)O)cc1", "note": "[Compound A, 4′-[[4-methyl-6-(1-methylbenzimidazol-2-yl)-2-n-propylbenzimidazol-1-yl]methyl]-1,1′-biphenyl-2-carboxylic acid]", "values": [{"measurement": "Improvement ratio (%)", "setting": "0.005% in physiological saline, vs physiological saline control, Table 1", "result": 62.5, "unit": "%"}, {"measurement": "Mean value of scores", "setting": "0.005% in physiological saline, Table 1 (normal eye 3.3, control 4.9)", "result": 3.9}]}]}
